This experiment relates to increase of diastolic pressure caused by the intravenous administration of Arg-vasopressin. The experiment in a line: Anti-vasopressor activity in vivo. Further details: species or system male SD rat. Conditions: 0.05 h; pith rat; test compound intravenous; Arg-vasopressin (30 mU/kg) intravenously 3 minutes after the test compound; dose reducing the increase of diastolic pressure to 50 % of control.

We go through one compound from EP0382185A2, “Carbostyril derivatives” (OTSUKA PHARMACEUTICAL CO., LTD., priority 1989, dated 1990).

On to `COc1ccc(C(=O)N2CCC(N3C(=O)CCc4ccc(F)cc43)CC2)c(OC)c1` [Example 311, 7-Fluoro-1-[1-(2,4-dimethoxybenzoyl)-4-piperidinyl]-3,4-dihydrocarbostyril], for which the median effective dose (ED50) – broadly, the midpoint of the dose-response relation – was determined as 0.3 mg/kg.
